The source of these data is patent publication US6043258A (Eli Lilly and Company, priority 1998, dated 2000).

One test has as its target 5HT1D receptor subtype. Put plainly: 5HT1D receptor affinity. Format: binding.
In test [1] the test system is m4 receptors (CHO m4 cells). The experiment in a line: cAMP formation in CHO m4 cells treated with pertussis toxin. It counts as cell-based. From the text: Muscarinic agonists stimulate the formation of cAMP up to 10 fold in CHO m4 cells treated with pertussisi toxin and the pharmacology is consistent with the mediation by m4 receptors. Eckols K. Soc. Neurosci Abstr., 21:2040 (1995).
Background: Changes in cAMP serve as a functional read-out for many G protein-coupled receptors.

The target in test [2] is muscarinic receptors (^3 H-oxotremorine-M binding). The experiment in a line: ^3 H-oxotremorine-M binding inhibition. Conditions: radioligand ^3 H-oxotremorine-M; read-out: inhibition constant (Ki), binding of ^3 H-oxotremorine-M.
A further test deals with D2 receptor subtype. The experiment in a line: pharmacological studies at D2 receptor subtype.

The Ki is a dissociation constant, usually derived from enzyme kinetics or from competition with a known ligand. As to `CCCCCCOc1nsnc1C1=CCCN(C)C1` [xanomeline, 3-(4-hexyloxy-1,2,5-thiadiazol-3-yl)-1,2,5,6-tetrahydro-1-methylpyridine], the figures for the inhibition constant (Ki) (on 5HT1D receptor subtype; in test [2]) were 180 nM and 2 nM, respectively. For the same molecule, in test [1], the “stimulation of the formation of cAMP” value is “efficaciously and potently stimulated the formation of CAMP”. For the same molecule, the “activity at the D2 receptor subtype” value with D2 receptor subtype was “active at the D2 receptor subtype”.
